Reference: patent US8952054B2, “Small molecule inhibitors of MUC1 and methods of identifying the same” (Dana-Farber Cancer Institute, Inc., priority 2010, dated 2015)

Tests used:
[1] = molecular target: T1, MUC1-CD (Homo sapiens, UniProt P15941); test: Plate-based MUC1-CD dimerization inhibition assay (primary screening); type: biochemical; settings: library of Table 1
T1 construct: the 72 aa cytoplasmic domain (CD); His; made in house
T1 sequence (P15941 1184-1255 limits assumed): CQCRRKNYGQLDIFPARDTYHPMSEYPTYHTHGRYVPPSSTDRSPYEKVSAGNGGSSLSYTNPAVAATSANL
Description: FIG. 6—Schematic Illustration of Primary HTS Screening Assay for MUC1-CD Dimerization. MUC1-CD protein was coated on a 96 well plate and then incubated with Biotinylated MUC1-CD that binds to non-biotinylated MUC1-CD protein by dimer formation. Bound biotinylated MUC1-CD protein was detected by incubation with Streptavin-HRP+peroxidase substrate system.
FIGS. 11A-C—Identification of MUC1-CD dimerization inhibitors in a small molecule screen. (FIG. 11A) Schematic representation of the MUC1-C subunit with the 58 amino acid (aa) extracellular domain (ECD), the 28 aa transmembrane domain (TD) and the 72 aa cytoplasmic domain (CD; SEQ ID NO: 1). The sequence of MUC1-CD is included with highlighting of the CQC dimerization motif. (FIG. 11B) The assay for identification of MUC1-CD dimerization inhibitors is depicted with the following steps: (i) coating of MUC1-CD onto a microplate, (ii) adding soluble biotinylated MUC1-C and […] compound, and (iii) addition of streptavidin-HRP and then peroxide with conversion by HRP to a blue color. The signal is measured by EnVision and proportional to the amount of bound biotin-labeled MUC1-CD.
FIGS. 12A-D—Apigenin is an inhibitor of MUC1-CD dimerization in vitro and in cells. (FIG. 12A) Structures of apigenin and its analogue baicalein. Using the in vitro screening assay, dimerization of MUC1-CD was assessed in the presence of 100 μM apigenin or 100 μM baicalein each dissolved in 0.1% DMSO. The results (mean±SD of 3 determinations) are expressed as percentage of control dimerization in the presence of DMSO alone. (FIG. 12B) MUC1-CD dimerization was assessed in the presence of the indicated concentrations of apigenin in the in vitro screening assay. […] (FIG. 12C) Soluble MUC1-CD was incubated in the presence of 1% DMSO, 1 mM apigenin or 1 mM baicalein for 1 h at room temperature. Monomers and dimmers were assessed by electrophoresis in a non-reducing gel and immunoblotting with anti-MUC1-C. (FIG. 12D) 293 cells were transiently transfected to express an empty vector or GFP-MUC1-CD and Flag-MUC1-CD. At six hours after transfection, the cells were left untreated, and treated with 75 μM apigenin or baicalein for 3 days. Whole-cell lysates were precipitated with anti-Flag, and the precipitates were immunoblotted with the indicated antibodies.
Multi-well (96- or 384-well) plates are coated with non-biotinylated MUC1-CD, and biotinylated MUC1-CD is added to the plates to initiate MUC1-CD dimerization or oligomerization. A luminescent substrate for biotin binding is added to the plate, followed by washing. Resulting fluorescence is detected by luminescence detection at absorbance 405 nm. A complete schematic illustration of this assay is described in […]. Test compounds are added at multiple concentrations to the plates and, following incubation and washing, the plates are read for luminescent detection. The formation of MUC1-CD dimers is detected.
To develop a HTS assay for compounds that inhibit MUC1-CD dimerization, the inventors generated purified His-tagged MUC1-CD protein. They also generated a biotin-labeled His-tagged MUC1-CD protein using a standard biotinylation kit. Biotinylated and non-biotinylated proteins were purified through Nickel columns.
The inventors coated 96- or 384-well plates with non-biotinylated MUC1-CD protein and added biotinylated MUC1-CD protein to the plates to initiate MUC1-CD/MUC1-CD dimerization or oligomerization. They then added a substrate to the plate which will bind to the biotinylated protein (only at the dimer or oligomer state) and the resultant fluorescence was detected by luminescence detection at absorbance 405 nm. A complete schematic illustration of this assay is described in FIG. 6.
Individual compounds from the chemical libraries were then added at multiple concentrations (0.01 μM to 100 μM) to the plates and following incubation and washing, the plates were read by luminescence detection at […]. […]

[2] = molecular target: xanthine oxidase (Homo sapiens, UniProt P47989); settings: cited from earlier work
[3] = cited from earlier work
[4] = system: MUC1-expressing cancer cells; test: Secondary screen against MUC1-expressing cancer cells in vitro; type: cell-based; settings: legend: ZR-75-1 breast carcinoma cells, 2 days, anti-MUC1-C immunoblot
Description: ZR-75-1 breast carcinoma cells were treated with […] Kaempterol for 2 days. Total cell lysates were then analyzed by immunoblotting with anti-MUC1-C antibody (FIG. 17A) or with anti-Actin antibodies (FIG. 17B).
Initial screens were performed in the presence of compounds at a concentration of 100 μM.

[5] = system: hyperammonemia; settings: oral administration, ammonium chloride-treated rats; cited from earlier work
[6] = molecular target: T2, aryl hydrocarbon receptor (AHR) (Rattus norvegicus, UniProt P41738); settings: rat liver cytosol, added just before TCDD; cited from earlier work
T2 construct: Addition of PD98059 to rat liver cytosol just before the addition of TCDD; from tissue; host or cells: rat liver cytosol

[7] = system: mitogen-activated protein kinase kinase (MEK); settings: cited from earlier work
[8] = molecular target: T3, His-MUC1-CD (Homo sapiens, UniProt P15941); settings: BIAcore analysis, Leng et al., 2007; read-out: dissociation constant (Kd) of MUC1-CD dimers; cited from earlier work
T3 construct: made in house
T3 sequence (P15941 1184-1255): T1 sequence (P15941 1184-1255 limits assumed)

[9] = system: severe sepsis; settings: from about 31% without; cited from earlier work

T2 sequence (P41738 10-853): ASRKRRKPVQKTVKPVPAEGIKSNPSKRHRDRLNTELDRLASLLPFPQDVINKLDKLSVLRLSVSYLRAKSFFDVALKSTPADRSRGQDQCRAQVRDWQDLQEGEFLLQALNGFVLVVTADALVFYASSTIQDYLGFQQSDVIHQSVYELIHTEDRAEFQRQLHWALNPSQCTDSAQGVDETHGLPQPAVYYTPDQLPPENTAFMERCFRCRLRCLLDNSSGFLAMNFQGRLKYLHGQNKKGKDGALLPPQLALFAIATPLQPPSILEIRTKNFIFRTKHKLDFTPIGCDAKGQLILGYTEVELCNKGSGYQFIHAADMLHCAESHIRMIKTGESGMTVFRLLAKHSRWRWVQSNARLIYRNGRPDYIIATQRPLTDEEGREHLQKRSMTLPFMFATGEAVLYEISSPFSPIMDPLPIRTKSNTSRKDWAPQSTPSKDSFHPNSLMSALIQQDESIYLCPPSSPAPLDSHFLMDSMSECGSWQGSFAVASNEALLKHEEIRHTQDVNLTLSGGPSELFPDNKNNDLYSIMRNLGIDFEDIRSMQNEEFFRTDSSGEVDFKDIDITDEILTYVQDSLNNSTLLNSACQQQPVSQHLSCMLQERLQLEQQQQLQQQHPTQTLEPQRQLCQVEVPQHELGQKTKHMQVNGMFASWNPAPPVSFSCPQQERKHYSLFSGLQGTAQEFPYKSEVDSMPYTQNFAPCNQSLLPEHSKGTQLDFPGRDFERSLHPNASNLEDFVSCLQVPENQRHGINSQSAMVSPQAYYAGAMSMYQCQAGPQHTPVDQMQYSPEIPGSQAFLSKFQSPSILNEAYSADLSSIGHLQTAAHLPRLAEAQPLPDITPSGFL
Chain of xanthine oxidase (P47989 whole entry, species assumed): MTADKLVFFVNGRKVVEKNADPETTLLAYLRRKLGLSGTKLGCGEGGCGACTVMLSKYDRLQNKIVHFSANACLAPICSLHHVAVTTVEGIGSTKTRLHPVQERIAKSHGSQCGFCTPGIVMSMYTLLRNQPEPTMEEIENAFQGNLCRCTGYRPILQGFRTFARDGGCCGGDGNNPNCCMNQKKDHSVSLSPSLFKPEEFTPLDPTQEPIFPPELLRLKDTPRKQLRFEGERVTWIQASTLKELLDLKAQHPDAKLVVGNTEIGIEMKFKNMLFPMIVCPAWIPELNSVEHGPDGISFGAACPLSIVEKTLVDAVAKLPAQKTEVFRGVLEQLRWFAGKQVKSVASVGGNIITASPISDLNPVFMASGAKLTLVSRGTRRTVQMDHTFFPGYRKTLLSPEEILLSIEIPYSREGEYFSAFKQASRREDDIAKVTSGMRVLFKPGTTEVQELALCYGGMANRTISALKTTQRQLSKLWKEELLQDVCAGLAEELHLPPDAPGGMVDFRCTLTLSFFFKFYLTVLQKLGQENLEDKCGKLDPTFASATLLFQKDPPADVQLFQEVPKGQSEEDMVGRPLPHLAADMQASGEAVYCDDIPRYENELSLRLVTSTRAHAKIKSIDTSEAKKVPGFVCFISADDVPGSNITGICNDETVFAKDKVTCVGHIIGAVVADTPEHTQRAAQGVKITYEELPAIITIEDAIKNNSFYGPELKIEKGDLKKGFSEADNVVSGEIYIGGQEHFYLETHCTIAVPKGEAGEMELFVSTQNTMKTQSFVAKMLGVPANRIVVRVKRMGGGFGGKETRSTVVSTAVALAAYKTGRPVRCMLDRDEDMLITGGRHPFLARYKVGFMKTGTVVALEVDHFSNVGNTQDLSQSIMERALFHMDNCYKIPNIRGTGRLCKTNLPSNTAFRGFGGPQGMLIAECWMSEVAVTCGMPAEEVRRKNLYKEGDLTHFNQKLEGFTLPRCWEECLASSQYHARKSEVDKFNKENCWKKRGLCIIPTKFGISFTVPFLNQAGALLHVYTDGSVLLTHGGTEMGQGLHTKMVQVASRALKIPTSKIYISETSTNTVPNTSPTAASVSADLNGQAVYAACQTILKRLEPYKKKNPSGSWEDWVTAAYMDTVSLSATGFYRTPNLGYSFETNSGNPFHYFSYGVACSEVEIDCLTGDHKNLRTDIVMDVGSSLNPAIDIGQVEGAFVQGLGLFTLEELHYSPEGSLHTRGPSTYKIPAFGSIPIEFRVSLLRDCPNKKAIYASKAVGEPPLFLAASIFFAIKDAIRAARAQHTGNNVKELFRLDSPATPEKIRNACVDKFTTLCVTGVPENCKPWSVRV

O=c1c(O)c(-c2ccc(O)c(O)c2)oc2cc(O)ccc12 [Fisetin]
initial library screen result [1]: MUC1 dimerization inhibitory compounds | inhibition of xanthine oxidase [2]: inhibit xanthine oxidase

O=c1c(O)c(-c2ccc(O)cc2)oc2cc(O)cc(O)c12 [Kaempferol]
solubility in organic solvents ([3]; hot ethanol and diethyl ether): soluble in hot ethanol and diethyl ether | solubility in water ([3]; water): slightly soluble in water | inhibition (FIGS. 17A-B) [4]: showed inhibition

O=c1c(O)c(-c2ccc(O)cc2O)oc2cc(O)cc(O)c12 [Morin, 3,5,7,2′,4′-pentahydroxyflavone]
ammonia, urea, lipid peroxidation [5]: significant reduction in ammonia, urea, lipid peroxidation | initial library screen result [1]: MUC1 dimerization inhibitory compounds

COc1cccc(-c2cc(=O)c3ccccc3o2)c1N [PD98059, 2-(2′-amino-3′-methoxyphenyl)-oxanaphthalen-4-one]
TCDD binding to AHR [6]: suppressed TCDD binding | initial library screen result [1]: MUC1 dimerization inhibitory compounds | inhibition of MEK [7]: potent inhibitor

MUC1-CD: 72-amino acid MUC1 cytoplasmic domain (SEQ ID NO:1)
Kd [8]: 33 nM

drotrecogin alfa
mortality [9]: about 25%
